Like-named read-outs stand apart in the source and are kept apart here. Marks after values point to notes of the source that are not given here. Residues, ends and D or L forms follow the SMILES beside them.
Assays:
DP402 = test: DP402
DR3 = test: DR3
Excerpt: (§1) Table printed on a drawing sheet, Figure 2
Where the first naming reader finds the target: head: DR3

DRB3 = test: DRB3
DR15 = test: DR15
DRB4 = test: DRB4
Excerpt: as §1
Where the first naming reader finds the target: head: DRB4

DR4 = test: DR4
HLA-DR1 (DRB1*0101) = target: T1, HLA-DR1 (DRB1*0101) (Homo sapiens, UniProt P01903+P01911, A100R/D57E/F55L/F60I/F76Y/I96L/L162R/M171V/P40L/Q125E/R42F/V115G/Y59C); test: biochemical; format: binding; conditions: for IC50: DRB1*0101
T1 construct: endogenous in cells; host or cells: homozygous EBV-transformed human B lymphocyte lines; immunopurified with antibody L243

DR11 = test: DR11
Excerpt: as §1
Where the first naming reader finds the target: head: DR11

DRB5 = test: DRB5
DP401 = test: DP401
DR7 = test: DR7
HLA-DR7 (DRB1*0701) = HLA-DR7 (DRB1*0701) (Homo sapiens, UniProt P01903+P01911, A100R/A102G/A103Q/D57E/D86V/E43K/F76Y/K127E/L162R/M171V/P40G/Q125H/Q99D/R33Q/R42Y/R54Q/S133A/S66F/T210M/V115G/Y107V/Y59L/Y89S); test: biochemical; format: binding; conditions: read-out: binds with good affinity to DR7
HLA-DRB5 (DRB5*0101) = target: T2, HLA-DRB5 (DRB5*0101) (Homo sapiens, UniProt P01903+Q30154); test: biochemical; format: binding; conditions: read-out: binds with good affinity to DRB5
T2 construct: endogenous in cells; host or cells: homozygous EBV-transformed human B lymphocyte lines; immunopurified with antibody L243

HLA-DR15 (DRB1*1501) = target: T3, HLA-DR15 (DRB1*1501) (Homo sapiens, UniProt P01903+P01911); test: biochemical; format: binding; conditions: DRB1*1501; read-out: binds with good affinity to DR15
T3 construct: endogenous in cells; host or cells: homozygous EBV-transformed human B lymphocyte lines; immunopurified with antibody L243

HLA-DR11 (DRB1*1101) = HLA-DR11 (DRB1*1101) (Homo sapiens, UniProt P01903+P01911, A100R/A169T/A87E/I96F/K41T/L162R/M171V/P40S/Q125H/Q178H/Q39Y/Q99D/R42S/S66Y/T262R/V115G/W38E); test: biochemical; format: binding; conditions: read-out: binds with good affinity to DR11
Chain of HLA-DR11 (DRB1*1101) (P01903 26-254 limits assumed, other chains not shown): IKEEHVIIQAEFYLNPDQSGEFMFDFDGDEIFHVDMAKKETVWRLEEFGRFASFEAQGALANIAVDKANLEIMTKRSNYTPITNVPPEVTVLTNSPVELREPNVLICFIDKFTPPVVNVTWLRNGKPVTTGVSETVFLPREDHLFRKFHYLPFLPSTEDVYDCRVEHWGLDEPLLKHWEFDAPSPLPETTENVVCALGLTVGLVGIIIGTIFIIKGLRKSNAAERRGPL

HLA-DRB4 (DRB4*0101) = target: T4, HLA-DRB4 (DRB4*0101) (Homo sapiens, UniProt P01903+P13762, G164S); test: biochemical; format: binding; conditions: read-out: binds with good affinity to DRB4
T4 construct: endogenous in cells; host or cells: homozygous EBV-transformed human B lymphocyte lines; immunopurified with antibody L243

[1] = tested on: T lymphocytes derived from PBMCs from patients chronically infected with HCV; format: cell-based, human
HLA-DR13 (DRB1*1301) = HLA-DR13 (DRB1*1301) (Homo sapiens, UniProt P01903+P01911, A100E/A169T/K41T/L162R/M171V/P40S/Q125H/Q178H/Q39Y/Q99D/R42S/S66N/T262R/W38E/Y61H); test: biochemical; format: binding
HLA-DR4 (DRB1*0401) = target: T5, HLA-DR4 (DRB1*0401) (Homo sapiens, UniProt P01903+P01911, A100K/A169T/F76Y/I96L/K127E/L162R/M171V/N62H/P40V/Q125Y/R42H/S133A/S149N/S66Y/V115G/V209L/W38E); test: biochemical; format: binding; conditions: read-out: binds with good affinity to DR4
T5 construct: endogenous in cells; host or cells: homozygous EBV-transformed human B lymphocyte lines; immunopurified with antibody L243

DR1 = test: DR1
[2] = read-out: binds with good affinity to DR1
[3] = patient 093, supernatant 48 h, —: not detected

SMILES	IC50 (DP402)	IC50 (DR3)	IC50 (DRB3)	IC50 (DR15)	IC50 (DRB4)	IC50 (DR4)	IC50 (DR11)	IC50 (DRB5)	IC50 (DP401)	IC50 (DR7)	IC50 (HLA-DR7 (DRB1*0701))	IC50 (HLA-DRB5 (DRB5*0101))	IC50 (HLA-DR15 (DRB1*1501))	IC50 (HLA-DR1 (DRB1*0101); [2])	IC50 (HLA-DR11 (DRB1*1101))	IC50 (HLA-DRB4 (DRB4*0101))	IC50 (HLA-DR4 (DRB1*0401))	IC50 (DR1)	also measured
CC(C)C[C@H](NC(=O)[C@H](Cc1c[nH]c2ccccc12)NC(=O)CNC(=O)[C@H](C)NC(=O)[C@@H](N)Cc1c[nH]c2ccccc12)C(=O)N[C@@H](CC(C)C)C(=O)N[C@@H](CO)C(=O)N1CCC[C@H]1C(=O)N[C@@H](CCCNC(=N)N)C(=O)NCC(=O)N[C@@H](CO)C(=O)N[C@@H](CCCNC(=N)N)C(=O)N1CCC[C@H]1C(=O)N[C@@H](CO)C(=O)N[C@@H](Cc1c[nH]c2ccccc12)C(=O)O [3C 93-107] (H-WAGWLLSPRGSRPSW-OH; N-terminus and C-terminus assumed)	> 100 µM	50 µM	> 100 µM	27.5 µM	5 µM	60 µM	0.087 µM	2.57 µM	–	–	–	–	–	–	–	–	–	–	IC50 (HLA-DR1 (DRB1*0101); competition with biotinylated tracer HA 306-318, read-out: IC50, binding to HLA-DR1): 6.33 µM; affinity for HLA-DR1 (in words) (HLA-DR1 (DRB1*0101); legend of FIG. 4): low affinity
CC[C@H](C)[C@H](N)C(=O)N[C@@H](CCC(=O)O)C(=O)N[C@@H](CCC(=O)O)C(=O)N[C@H](C(=O)N[C@@H](C)C(=O)N[C@@H](CC(C)C)C(=O)N[C@@H](CO)C(=O)N[C@H](C(=O)N[C@H](C(=O)NCC(=O)N[C@@H](CCC(=O)O)C(=O)N[C@H](C(=O)N1CCC[C@H]1C(=O)N[C@@H](Cc1ccccc1)C(=O)N[C@@H](Cc1ccc(O)cc1)C(=O)NCC(=O)N[C@@H](CCCCN)C(=O)N[C@@H](C)C(=O)N[C@H](C(=O)N1CCC[C@H]1C(=O)N[C@@H](CC(C)C)C(=O)N[C@@H](CCC(=O)O)C(=O)N[C@H](C(=O)N[C@H](C(=O)N[C@@H](CCCCN)C(=O)NCC(=O)O)[C@@H](C)CC)C(C)C)[C@@H](C)CC)[C@@H](C)CC)[C@@H](C)O)[C@@H](C)O)C(C)C [22N 1362-1387] (H-IEEVALSTTGEIPFYGKAIPLEVIKG-OH; N-terminus and C-terminus assumed)	10.3 µM	21.2 µM	32.5 µM	0.425 µM	4 µM	1.62 µM	3 µM	0.2 µM	8.01 µM	0.02 µM	< 1 µM	< 1 µM	< 1 µM	< 1 µM	–	–	–	–	–
CC[C@H](C)[C@H](NC(=O)[C@H](CC(C)C)NC(=O)[C@H](Cc1c[nH]cn1)NC(=O)[C@H](CCCNC(=N)N)NC(=O)CNC(=O)CNC(=O)[C@H](CCCCN)NC(=O)[C@@H](NC(=O)[C@@H](NC(=O)[C@H](CCC(=O)O)NC(=O)[C@H](CC(C)C)NC(=O)[C@@H]1CCCN1C(=O)[C@@H](NC(=O)[C@H](C)NC(=O)[C@H](CCCCN)NC(=O)CN)[C@@H](C)CC)C(C)C)[C@@H](C)CC)C(=O)N[C@@H](Cc1ccccc1)C(=O)N[C@@H](CS)C(=O)N[C@@H](Cc1c[nH]cn1)C(=O)N[C@@H](CO)C(=O)N[C@@H](CCCCN)C(=O)N[C@@H](CCCCN)C(=O)N[C@@H](CCCCN)C(=O)N[C@@H](C)C(=O)N[C@@H](CC(=O)O)C(=O)N[C@@H](CCC(=O)O)C(=O)N[C@@H](CC(C)C)C(=O)O [23N 1377-1403] (H-GKAIPLEVIKGGRHLIFCHSKKKADEL-OH; N-terminus and C-terminus assumed)	–	–	> 10 µM	–	0.9 µM	3 µM	–	0.003 µM	–	–	< 1 µM	< 1 µM	–	< 1 µM	< 1 µM	< 1 µM	–	–	IL2 ([1]; patient 067, supernatant 48 h, —: not detected): — 51 pg/ml; IL10 ([1]; patient 078, supernatant 48 h, —: not detected): 54 pg/mL; IFNγ [1, 3]: 57 pg/mL; IL4 [1, 3]: 23 pg/mL; IL10 ([1]; patient 659, supernatant 48 h, —: not detected): 29 pg/mL; IL10 ([1]; patient 815, assay at 24 h instead of 48 h): 63* — pg/ml; IL2 ([1]; patient 815, supernatant 48 h, —: not detected): 58 pg/mL; IC50 (HLA-DR13 (DRB1*1301); read-out: binds with good affinity to DR13): < 1 µM
CC(C)C[C@H](NC(=O)[C@H](Cc1c[nH]cn1)NC(=O)[C@H](C)NC(=O)[C@@H](NC(=O)[C@H](CCC(N)=O)NC(=O)[C@H](Cc1ccccc1)NC(=O)[C@H](CO)NC(=O)[C@H](CCC(N)=O)NC(=O)[C@@H]1CCCN1C(=O)[C@@H](NC(=O)[C@@H](NC(=O)[C@@H]1CCCN1C(=O)[C@@H]1CCCN1C(=O)[C@H](CO)NC(=O)[C@H](CO)NC(=O)[C@H](CC(N)=O)NC(=O)[C@H](CC(=O)O)NC(=O)[C@@H](NC(=O)[C@H](Cc1ccccc1)NC(=O)[C@@H](NC(=O)[C@@H]1CCCN1C(=O)[C@H](CO)NC(=O)[C@@H](N)CCCNC(=N)N)C(C)C)[C@@H](C)O)C(C)C)C(C)C)C(C)C)C(=O)N[C@@H](Cc1c[nH]cn1)C(=O)N[C@@H](C)C(=O)N1CCC[C@H]1C(=O)N[C@H](C(=O)NCC(=O)N[C@@H](CO)C(=O)NCC(=O)N[C@@H](CCCCN)C(=O)N[C@@H](CO)C(=O)N[C@H](C(=O)N[C@@H](CCCCN)C(=O)O)[C@@H](C)O)[C@@H](C)O [17N 1206-1239]	14.6 µM	–	5.25 µM	10 µM	3.88 µM	0.425 µM	0.55 µM	–	64.8 µM	–	< 1 µM	< 1 µM	–	< 1 µM	< 1 µM	–	< 1 µM	0.055 µM	–
CC[C@H](C)[C@H](NC(=O)[C@H](Cc1c[nH]cn1)NC(=O)[C@H](CCCNC(=N)N)NC(=O)[C@@H](NC(=O)[C@@H](NC(=O)[C@H](CC(C)C)NC(=O)[C@H](CCCNC(=N)N)NC(=O)[C@@H](NC(=O)[C@H](CCCNC(=N)N)NC(=O)[C@H](CCC(=O)O)NC(=O)[C@@H](N)[C@@H](C)O)C(C)C)C(C)C)[C@@H](C)O)C(=O)N[C@@H](Cc1ccc(O)cc1)C(=O)N[C@@H](CC(N)=O)C(=O)N[C@@H](CCCNC(=N)N)C(=O)N[C@@H](CCC(=O)O)C(=O)N[C@@H](CCC(=O)O)C(=O)O [B1 21-36, reference compound] (H-TERVRLVTRHIYNREE-OH; N-terminus and C-terminus assumed)	–	–	–	–	–	–	–	–	–	–	–	–	–	–	–	–	–	–	IC50 (HLA-DR13 (DRB1*1301); tracer B1 21-36, read-out: IC50, binding to HLA-DR13): 0.33 µM
CC[C@H](C)[C@H](NC(=O)[C@H](CCC(N)=O)NC(=O)[C@@H](NC(=O)[C@H](CCC(=O)O)NC(=O)CNC(=O)[C@H](CCC(=O)O)NC(=O)[C@@H](NC(=O)[C@H](CCC(N)=O)NC(=O)[C@H](CC(N)=O)NC(=O)[C@@H](N)CCCCN)C(C)C)C(C)C)C(=O)N[C@H](C(=O)N[C@@H](CO)C(=O)N[C@H](C(=O)N[C@@H](C)C(=O)N[C@@H](C)C(=O)N[C@@H](CCC(N)=O)C(=O)N[C@H](C(=O)N[C@@H](Cc1ccccc1)C(=O)N[C@@H](CC(C)C)C(=O)N[C@@H](C)C(=O)N[C@H](C(=O)O)[C@@H](C)O)[C@@H](C)O)[C@@H](C)O)C(C)C [10N 1052-1072]	1.18 µM	2.25 µM	10 µM	0.3 µM	0.4 µM	0.024 µM	0.2 µM	0.019 µM	2.03 µM	0.007 µM	< 1 µM	< 1 µM	< 1 µM	< 1 µM	< 1 µM	< 1 µM	< 1 µM	0.4 µM	–

— patent US20060110401A1, “Mixture of peptides from c and ns3 proteins of the hepatitis c virus and applications thereof” (priority 2002, published 2006)
